Measurements from ChEMBL document CHEMBL1649393, “Synthesis and antimicrobial activity of thiosemicarbazides, s-triazoles and their Mannich bases bearing 3-chlorophenyl moiety” (2011).
≈ marks a conversion by molar mass, not a printed value.

Legend:
Format in all cases: functional
[1] = test system: Staphylococcus aureus; assay: Antimicrobial activity against Staphylococcus aureus ATCC 25923 after 18 hrs by broth microdilution method; conditions: ATCC 25923, 18 h
[2] = test system: Staphylococcus aureus; assay: Antimicrobial activity against Staphylococcus aureus ATCC 6538 after 18 hrs by broth microdilution method; conditions: ATCC 6538, 18 h
[3] = test system: Staphylococcus epidermidis; assay: Antimicrobial activity against Staphylococcus epidermidis ATCC 12228 after 18 hrs by broth microdilution method; conditions: ATCC 12228, 18 h
[4] = test system: Bacillus subtilis; assay: Antimicrobial activity against Bacillus subtilis ATCC […] after 18 hrs by broth microdilution method
[5] = test system: Bacillus cereus; assay: Antimicrobial activity against Bacillus cereus ATCC 10876 after 18 hrs by broth microdilution method; conditions: ATCC 10876, 18 h
[6] = test system: Micrococcus luteus; assay: Antimicrobial activity against Micrococcus luteus ATCC 10240 after 18 hrs by broth microdilution method; conditions: ATCC 10240, 18 h
[7] = test system: Escherichia coli; assay: Antimicrobial activity against Escherichia coli ATCC 25922 after 18 hrs by broth microdilution method; conditions: ATCC 25922, 18 h
[8] = test system: Klebsiella pneumoniae; assay: Antimicrobial activity against Klebsiella pneumoniae ATCC 13883 after 18 hrs by broth microdilution method; conditions: ATCC 13883, 18 h
[9] = test system: Proteus mirabilis; assay: Antimicrobial activity against Proteus mirabilis ATCC 12453 after 18 hrs by broth microdilution method; conditions: ATCC 12453, 18 h
[10] = test system: Staphylococcus aureus; assay: Antimicrobial activity against Staphylococcus aureus ATCC 25923 assessed as >99.9 % reduction in CFU after 18 hrs by broth microdilution method; conditions: ATCC 25923, 18 h
[11] = test system: Staphylococcus aureus; assay: Antimicrobial activity against Staphylococcus aureus ATCC 6538 assessed as >99.9 % reduction in CFU after 18 hrs by broth microdilution method; conditions: ATCC 6538, 18 h
[12] = test system: Staphylococcus epidermidis; assay: Antimicrobial activity against Staphylococcus epidermidis ATCC 12228 assessed as >99.9 % reduction in CFU after 18 hrs by broth microdilution method; conditions: ATCC 12228, 18 h
[13] = test system: Bacillus subtilis; assay: Antimicrobial activity against Bacillus subtilis ATCC […] assessed as >99.9 % reduction in CFU after 18 hrs by broth microdilution method
[14] = test system: Bacillus cereus; assay: Antimicrobial activity against Bacillus cereus ATCC 10876 assessed as >99.9 % reduction in CFU after 18 hrs by broth microdilution method; conditions: ATCC 10876, 18 h
[15] = test system: Micrococcus luteus; assay: Antimicrobial activity against Micrococcus luteus ATCC 10240 assessed as >99.9 % reduction in CFU after 18 hrs by broth microdilution method; conditions: ATCC 10240, 18 h
[16] = test system: Escherichia coli; assay: Antimicrobial activity against Escherichia coli ATCC 25922 assessed as >99.9 % reduction in CFU after 18 hrs by broth microdilution method; conditions: ATCC 25922, 18 h
[17] = test system: Klebsiella pneumoniae; assay: Antimicrobial activity against Klebsiella pneumoniae ATCC 13883 assessed as >99.9 % reduction in CFU after 18 hrs by broth microdilution method; conditions: ATCC 13883, 18 h, read-out: MBC
[18] = test system: Proteus mirabilis; assay: Antimicrobial activity against Proteus mirabilis ATCC 12453 assessed as >99.9 % reduction in CFU after 18 hrs by broth microdilution method; conditions: ATCC 12453, 18 h

SMILES | MIC [1] [µg/mL] | MIC [2] [µg/mL] | MIC [3] [µg/mL] | MIC [4] [µg/mL] | MIC [5] [µg/mL] | MIC [6] [µg/mL] | also measured
S=c1[nH]nc(-c2cccc(Cl)c2)n1-c1ccccc1I | > 1000 | > 1000 | > 1000 | > 1000 | > 1000 | > 1000 | –
O=C(NNC(=S)Nc1ccccc1Br)c1cccc(Cl)c1 | 62.5 (≈ 162 µM) | 31.2 (≈ 81.2 µM) | 125 (≈ 325 µM) | 125 (≈ 325 µM) | 62.5 (≈ 162 µM) | 62.5 (≈ 162 µM) | –
S=c1n(CN2CCCC2)nc(-c2cccc(Cl)c2)n1-c1ccccc1 | 125 (≈ 337 µM) | 125 (≈ 337 µM) | 125 (≈ 337 µM) | 125 (≈ 337 µM) | 125 (≈ 337 µM) | 125 (≈ 337 µM) | MIC [7]: 500 µg/mL (≈ 1350 µM); MIC [8]: 250 µg/mL (≈ 674 µM); MIC ([9]; read-out: MIC): 500 µg/mL (≈ 1350 µM); MBC [10]: 500 µg/mL (≈ 1350 µM); MBC [11]: 500 µg/mL (≈ 1350 µM); MBC [12]: 1000 µg/mL (≈ 2700 µM); MBC [13]: 500 µg/mL (≈ 1350 µM); MBC [14]: > 1000 µg/mL; MBC [15]: 1000 µg/mL (≈ 2700 µM); MBC [16]: 500 µg/mL (≈ 1350 µM); MBC [17]: 500 µg/mL (≈ 1350 µM); MBC ([18]; read-out: MBC): > 1000 µg/mL
Fc1cccc(F)c1-n1c(-c2cccc(Cl)c2)n[nH]c1=S | 250 (≈ 772 µM) | 250 (≈ 772 µM) | 250 (≈ 772 µM) | 500 (≈ 1540 µM) | 250 (≈ 772 µM) | 125 (≈ 386 µM) | –
O=C(NNC(=S)Nc1c(F)cccc1F)c1cccc(Cl)c1 | 125 (≈ 366 µM) | 250 (≈ 731 µM) | 250 (≈ 731 µM) | 250 (≈ 731 µM) | 250 (≈ 731 µM) | 250 (≈ 731 µM) | –
S=c1[nH]nc(-c2cccc(Cl)c2)n1-c1ccccc1Br | > 1000 | > 1000 | 125 (≈ 341 µM) | 1000 (≈ 2730 µM) | 1000 (≈ 2730 µM) | > 1000 | –
O=C(NNC(=S)Nc1ccc(Cl)cc1)c1cccc(Cl)c1 | 31.2 (≈ 91.8 µM) | 31.2 (≈ 91.8 µM) | 31.2 (≈ 91.8 µM) | 31.2 (≈ 91.8 µM) | 62.5 (≈ 184 µM) | 31.2 (≈ 91.8 µM) | –
Fc1ccc(F)c(-n2c(-c3cccc(Cl)c3)nn(CN3CCCC3)c2=S)c1 | 125 (≈ 307 µM) | 125 (≈ 307 µM) | 125 (≈ 307 µM) | 125 (≈ 307 µM) | 125 (≈ 307 µM) | 125 (≈ 307 µM) | MIC [7]: 500 µg/mL (≈ 1230 µM); MIC [8]: 250 µg/mL (≈ 614 µM); MIC [9]: 500 µg/mL (≈ 1230 µM); MBC [10]: 500 µg/mL (≈ 1230 µM); MBC [11]: 500 µg/mL (≈ 1230 µM); MBC [12]: 1000 µg/mL (≈ 2460 µM); MBC [13]: 1000 µg/mL (≈ 2460 µM); MBC [14]: > 1000 µg/mL; MBC [15]: 1000 µg/mL (≈ 2460 µM); MBC [16]: > 1000 µg/mL; MBC [17]: > 1000 µg/mL; MBC [18]: > 1000 µg/mL
Fc1ccc(-n2c(-c3cccc(Cl)c3)n[nH]c2=S)cc1 | > 1000 | > 1000 | > 1000 | > 1000 | > 1000 | > 1000 | –
S=c1[nH]nc(-c2cccc(Cl)c2)n1-c1ccc(Br)cc1 | 31.2 (≈ 85.2 µM) | 31.2 (≈ 85.2 µM) | 31.2 (≈ 85.2 µM) | 15.6 (≈ 42.6 µM) | 15.6 (≈ 42.6 µM) | 31.2 (≈ 85.2 µM) | –
Cc1ccc(-n2c(-c3cccc(Cl)c3)n[nH]c2=S)cc1 | > 1000 | > 1000 | > 1000 | > 1000 | > 1000 | > 1000 | –
O=C(NNC(=S)Nc1ccccc1I)c1cccc(Cl)c1 | 31.2 (≈ 72.4 µM) | 31.2 (≈ 72.4 µM) | 31.2 (≈ 72.4 µM) | 15.6 (≈ 36.2 µM) | 31.2 (≈ 72.4 µM) | 31.2 (≈ 72.4 µM) | –
S=c1[nH]nc(-c2cccc(Cl)c2)n1-c1ccc(Cl)cc1 | 125 (≈ 388 µM) | 125 (≈ 388 µM) | 125 (≈ 388 µM) | 125 (≈ 388 µM) | 125 (≈ 388 µM) | 125 (≈ 388 µM) | –
O=C(NNC(=S)Nc1ccc(F)cc1)c1cccc(Cl)c1 | > 1000 | > 1000 | > 1000 | > 1000 | > 1000 | > 1000 | –
Fc1ccc(F)c(-n2c(-c3cccc(Cl)c3)n[nH]c2=S)c1 | > 1000 | > 1000 | 250 (≈ 772 µM) | 1000 (≈ 3090 µM) | 1000 (≈ 3090 µM) | 1000 (≈ 3090 µM) | –
O=C(NNC(=S)Nc1ccccc1)c1cccc(Cl)c1 | 125 (≈ 409 µM) | 125 (≈ 409 µM) | 125 (≈ 409 µM) | 125 (≈ 409 µM) | 125 (≈ 409 µM) | 125 (≈ 409 µM) | –
S=c1[nH]nc(-c2cccc(Cl)c2)n1-c1ccccc1 | > 1000 | > 1000 | > 1000 | 125 (≈ 434 µM) | > 1000 | > 1000 | –
S=c1[nH]nc(-c2cccc(Cl)c2)n1-c1ccc(I)cc1 | 250 (≈ 604 µM) | 500 (≈ 1210 µM) | 250 (≈ 604 µM) | 31.2 (≈ 75.5 µM) | 250 (≈ 604 µM) | > 1000 | –
O=C(NNC(=S)Nc1ccc(I)cc1)c1cccc(Cl)c1 | 31.2 (≈ 72.4 µM) | 31.2 (≈ 72.4 µM) | 31.2 (≈ 72.4 µM) | 31.2 (≈ 72.4 µM) | 15.6 (≈ 36.2 µM) | 31.2 (≈ 72.4 µM) | –
CC1(C)S[C@@H]2[C@H](NC(=O)[C@H](N)c3ccccc3)C(=O)N2[C@H]1C(=O)O [AMPICILLIN] | 2 (≈ 5.72 µM) | 3 (≈ 8.59 µM) | 6 (≈ 17.2 µM) | 3 (≈ 8.59 µM) | 62.5 (≈ 179 µM) | 6 (≈ 17.2 µM) | –
O=C(NNC(=S)Nc1ccc(Br)cc1)c1cccc(Cl)c1 | 15.6 (≈ 40.6 µM) | 15.6 (≈ 40.6 µM) | 15.6 (≈ 40.6 µM) | 31.2 (≈ 81.2 µM) | 15.6 (≈ 40.6 µM) | 15.6 (≈ 40.6 µM) | –
COc1ccc(-n2c(-c3cccc(Cl)c3)n[nH]c2=S)cc1 | > 1000 | > 1000 | > 1000 | > 1000 | > 1000 | > 1000 | –
Cc1ccc(NC(=S)NNC(=O)c2cccc(Cl)c2)cc1 | 62.5 (≈ 195 µM) | 62.5 (≈ 195 µM) | > 1000 | > 1000 | > 1000 | > 1000 | –
COc1ccc(NC(=S)NNC(=O)c2cccc(Cl)c2)cc1 | 62.5 (≈ 186 µM) | 125 (≈ 372 µM) | 125 (≈ 372 µM) | 125 (≈ 372 µM) | 125 (≈ 372 µM) | 62.5 (≈ 186 µM) | –
O=C(NNC(=S)Nc1cc(F)ccc1F)c1cccc(Cl)c1 | 62.5 (≈ 183 µM) | 62.5 (≈ 183 µM) | 125 (≈ 366 µM) | 125 (≈ 366 µM) | 125 (≈ 366 µM) | 62.5 (≈ 183 µM) | –
